Measured values published in US9198896B2 (priority 2006, dated 2015).

Columns and labels:
[1] = system: EAC cells; experiment: Tumor growth inhibition study; details: individually, at the concentrations mentioned in Table 7
Description: Tumor growth inhibition study: For this study, the total number of EAC cells was counted. The ascites fluid containing cells were quantitatively removed from peritoneal cavity of two mice for a particular drug combination. The cavity was further washed twice with a fixed volume of 0.9% NaCl. The washing and the ascites fluid containing the cells were pooled and centrifuged at 2000×g for 5 min. The packed cell volumes were noted. A fixed amount of aliquot from the packed cells was appropriately diluted, and the number of cells was counted in a hemocytometer. Averages (X^−±SEM) were made of these two parameters, and percentage inhibitions [(1−T/C)×100] were calculated for each dose of different test combinations.

[2] = system: Ehrlich ascites cells; experiment: Loss of viability of Ehrlich ascites cells on incubation; details: read-out: reduction of viability of Ehrlich ascites cells

CN(CC(=O)O)C(=N)N [creatine]
effect on EAC cells inoculated mice [1]: no effect

O=C1O[C@H]([C@@H](O)CO)C(O)=C1O [ascorbic acid, reference compound]
effect on EAC cells inoculated mice [1]: no effect

COc1ccc2[nH]cc(CCNC(C)=O)c2c1 [melatonin]
cytotoxicity at 200 µM [2]: ~10%
